Source: patent US20210330611A1, “THERAPY FOR NEUROLOGICAL DISEASES/DISORDERS” (priority 2020, published 2021)
Several values for one entry are separate records, joined by “and”; a condition that tells them apart may be missing. Equal entries are not always repeated. Structures can show the parent of a compound that is named as a salt. Where two headings read alike, the source gives them in different places.

Tests used:
Format in all cases: cell-based, rat
[1] = tested on: LPS-induced microglia activation; test: Image-based assay of LPS-induced microglia activation (HTS and dose response); conditions: for inhibition at 10 µM: read-out: LPS % inhibition
[2] = tested on: fibrin- and LPS-induced microglia activation; test: cells
[3] = tested on: fibrin-induced microglia activation; test: Image-based assay of fibrin-induced microglia activation (HTS and dose response); conditions: for inhibition at 10 µM: read-out: Fibrin % inhibition
[4] = Rattus norvegicus, Microglia, 48 h
[5] = primary microglia HTS, LPS stimulation, increased cell size (>800 μm^2) as marker of activation
[6] = quadrant by fibrin and LPS inhibition in HTS of 1907 compounds
[7] = primary microglia HTS, fibrin stimulation, increased cell size (>800 μm^2) as marker of activation
[8] = Rattus norvegicus, Microglia, 48 h, primary microglia HTS, LPS stimulation, increased cell size (>800 μm^2) as marker of activation
[9] = Rattus norvegicus, Microglia, primary microglia HTS, fibrin stimulation, increased cell size (>800 μm^2) as marker of activation
[10] = Rattus norvegicus, Microglia, Table 7, read-out: LPS_IC50
[11] = Table 7, fib = fibrin, LPS, tox = toxicity
[12] = Rattus norvegicus, Microglia, Table 7, read-out: fib_IC50
[13] = Rattus norvegicus, Microglia, primary microglia HTS, LPS stimulation, compounds at 10 μM
[14] = classification by fibrin and LPS inhibition, HTS at 10 μM

C[C@]12CC[C@H]3[C@@H](CCC4=CC(=O)CC[C@@]43C)[C@@H]1CC[C@@H]2O [Testosterone]
inhibition at 10 µM ([1]; Rattus norvegicus, Microglia): 5% | Quadrant (FIG. 5b) [2]: Q4 | inhibition at 10 µM ([3]; Rattus norvegicus, Microglia): -1%

NS(=O)(=O)c1cc(C(=O)O)c(NCc2ccco2)cc1Cl [Furosemide]
inhibition at 10 µM [1, 4]: 25% | Quadrant (FIG. 5b) [2]: Q4 | inhibition at 10 µM ([3]; Rattus norvegicus, Microglia): -5%

C#CC(C)(O)CC (centres unmarked) [Meparfylon]
LPS % inhibition [1, 5]: 3% | Quadrant (FIG. 5b) [2, 6]: Q4 | Fibrin % inhibition [3, 7]: −49%

Cc1nc(Nc2ncc(C(=O)Nc3c(C)cccc3Cl)s2)cc(N2CCN(CCO)CC2)n1 [Dasatinib]
inhibition at 10 µM [1, 8]: 70% | Quadrant (FIG. 5b) [2, 6]: Q2 | inhibition at 10 µM [3, 9]: 109%

O=C(O)c1cccnc1 [Niacin]
inhibition at 10 µM [1, 4]: 13% | Quadrant (FIG. 5b) [2]: Q4 | inhibition at 10 µM ([3]; Rattus norvegicus, Microglia): 8%

NC(N)=Nc1nc(CSCCC(N)=NS(N)(=O)=O)cs1 [Famotidine]
inhibition at 10 µM ([1]; Rattus norvegicus, Microglia): 9% | Quadrant (FIG. 5b) [2]: Q4 | inhibition at 10 µM ([3]; Rattus norvegicus, Microglia): -82%

CCC[C@@H]1C[C@@H](C(=O)N[C@@H]([C@H]2O[C@H](SC)[C@H](O)[C@@H](O)[C@H]2O)[C@H](C)Cl)N(C)C1 [Clindamycin Hydrochloride]
inhibition at 10 µM ([1]; Rattus norvegicus, Microglia): 7% | Quadrant (FIG. 5b) [2]: Q4 | inhibition at 10 µM ([3]; Rattus norvegicus, Microglia): -44%

O=C(O)CCCCC1CCSS1 (centres unmarked) [Lipoic Acid]
LPS % inhibition ([1]; primary microglia HTS, LPS stimulation, activation = cell size >800 μm2): 39% | Quadrant (FIG. 5b) [2, 6]: Q4 | Fibrin % inhibition ([3]; primary microglia HTS, fibrin stimulation, activation = cell size >800 μm2): −38%

CN1CCN(CCCN2c3ccccc3Sc3ccc(Cl)cc32)CC1 [Prochlorperazine dimaleate, reference compound]
Activity [2]: fib/LPS | Quadrant (FIG. 5b) [2]: Q4

neomycin sulfate
LPS specificity [1]: 0.5 | Activity [2]: fib/LPS | fib specificity [3]: 2.2 | fib_HS [3]: −0.75 | IC50 ([3]; read-out: fib_IC50): 2.3 µM

C[C@H](N)[C@H](O)c1ccccc1.Cl
LPS % inhibition [1]: 7% | Quadrant (FIG. 5b) [2]: Q4 | Fibrin % inhibition [3]: −15%

COc1cccc2c1C(=O)c1c(O)c3c(c(O)c1C2=O)C[C@@](O)(C(=O)CO)C[C@@H]3O[C@H]1C[C@H](N)[C@H](O)[C@H](C)O1 [Doxorubicin]
inhibition at 10 µM [1, 8]: 108% | Quadrant (FIG. 5b) [2, 6]: Q2 | inhibition at 10 µM [3, 9]: 106%

C[C@@H]1CCC[C@H](C)N1NC(=O)c1ccc(Cl)c(S(N)(=O)=O)c1 [clopamide]
IC50 [1, 10]: 0.002 µM | Activity [2, 11]: fib/LPS | IC50 [3, 12]: 0.003 µM

Beta-escin
LPS % inhibition ([1]; primary HTS, 10 μM, LPS-stimulated primary microglia): 11% | Quadrant (FIG. 5b) ([2]; primary HTS, 10 μM): Q4 | Fibrin % inhibition ([3]; primary HTS, 10 μM, fibrin-stimulated primary microglia): −11%

Cc1cn([C@H]2C[C@H](N=[N+]=[N-])[C@@H](CO)O2)c(=O)[nH]c1=O [Zidovudine]
LPS % inhibition ([1]; 10 µM): 13% | inhibition at 10 µM ([1]; Rattus norvegicus, Microglia): 9% | Quadrant (FIG. 5b) [2]: Q4

CC[C@H]1OC(=O)[C@H](C)[C@@H](O[C@H]2C[C@@](C)(OC)[C@@H](O)[C@H](C)O2)[C@H](C)[C@@H](O[C@@H]2O[C@H](C)C[C@H](N(C)C)[C@H]2O)[C@](C)(O)C[C@@H](C)C(=O)[C@H](C)[C@@H](O)[C@]1(C)O [Erythromycin]
inhibition at 10 µM [1, 13]: 20% | LPS % inhibition ([1]; primary microglia HTS, LPS stimulation, compounds at 10 μM, 10 µM): 13% | Quadrant (FIG. 5b) [2, 14]: Q4

OCc1cccnc1 [Nicotinyl Alcohol Tartrate]
inhibition at 10 µM [1, 8]: 4% | inhibition at 10 µM [3, 9]: -5%

CC(C)(C)c1ccc(C(O)CCCN2CCC(C(O)(c3ccccc3)c3ccccc3)CC2)cc1 (centres unmarked) [Terfenadine]
inhibition at 10 µM ([1]; Rattus norvegicus, Microglia): 7% | Quadrant (FIG. 5b) [2]: Q4 | inhibition at 10 µM ([3]; Rattus norvegicus, Microglia): 19%

C/C=C/c1ccc(OC)cc1 [Anethole]
inhibition at 10 µM [1, 13]: 13% | Quadrant (FIG. 5b) ([2]; quadrant by fibrin and LPS inhibition, HTS at 10 μM): Q4 | inhibition at 10 µM ([3]; Rattus norvegicus, Microglia, primary microglia HTS, fibrin stimulation, compounds at 10 μM): -37%

CC(C)NCC(O)COc1cccc2ccccc12 (centres unmarked)
inhibition at 10 µM ([1]; Rattus norvegicus, Microglia): -5% | Quadrant (FIG. 5b) [2]: Q4 | Fibrin % inhibition ([3]; 10 µM): −18%

COCc1c(C(C)C)nc(C(C)C)c(/C=C/[C@@H](O)C[C@@H](O)CC(=O)O)c1-c1ccc(F)cc1 [Cerivastatin, Cerivastatin Na]
LPS % inhibition [1]: 101% | Quadrant (FIG. 5b) [2]: Q2 | Fibrin % inhibition [3]: 103%

O=c1c(-c2ccccc2)coc2cc(O)cc(O)c12 [5,7-dihydroxyisoflavone]
IC50 [1, 10]: 0.021 µM | Activity [2, 11]: fib/LPS | IC50 [3, 12]: 0.172 µM

Oxolamine Citrate
LPS % inhibition [1]: 10% | Quadrant (FIG. 5b) [2]: Q4 | Fibrin % inhibition [3]: −1%

N=C(N)NCCN1CCCCCCC1 [Guanethidine]
inhibition at 10 µM [1, 4]: 12% | Quadrant (FIG. 5b) [2]: Q4 | inhibition at 10 µM ([3]; Rattus norvegicus, Microglia): -44%

CC(C)c1c(C(=O)Nc2ccccc2)c(-c2ccccc2)c(-c2ccc(F)cc2)n1CC[C@@H](O)C[C@@H](O)CC(=O)[O-].CC(C)c1c(C(=O)Nc2ccccc2)c(-c2ccccc2)c(-c2ccc(F)cc2)n1CC[C@@H](O)C[C@@H](O)CC(=O)[O-].[Ca+2] [Atorvastatin calcium, reference compound]
LPS % inhibition [1]: 88% | IC50 ([1]; read-out: LPS IC50): 3 µM | IC50 ([1]; read-out: LPS IC50 (uM) (Suppl. Table 7)): 3 µM | Cherry-picked Hit (Suppl. Table 7) [2]: HIT (key: HIT: Hits were defined as molecules that exhibited greater than 50% inhibition of either fibrin or LPS activation) | Hit [2]: HIT (key: HIT: Hits were defined as molecules that exhibited greater than 50% inhibition of either fibrin or LPS activation) | Quadrant (FIG. 5b) [2]: Q2 | IC50 ([3]; read-out: Fibrin IC50): 0.6 µM | IC50 ([3]; read-out: Fibrin IC50 (uM) (Suppl. Table 7)): 0.6 µM

CN1CCCCC1CCN1c2ccccc2Sc2ccc([S+](C)[O-])cc21 (centres unmarked) [Mesoridazine]
inhibition at 10 µM ([3]; Rattus norvegicus, Microglia): -5%

Dimenhydrinate
Quadrant (FIG. 5b) [2, 14]: Q4

CN1[C@@H]2CC[C@H]1C[C@@H](OC(=O)[C@H](CO)c1ccccc1)C2 [Hyoscyamine]
inhibition at 10 µM [1, 4]: 13%

O=C(O)c1cn(C2CC2)c2cc(N3CCNCC3)c(F)cc2c1=O [Ciprofloxacin]
inhibition at 10 µM ([1]; Rattus norvegicus, Microglia): 17% | inhibition at 10 µM ([3]; Rattus norvegicus, Microglia): -30%

CC(=O)S[C@@H]1CC2=CC(=O)CC[C@]2(C)[C@H]2CC[C@@]3(C)[C@@H](CC[C@@]34CCC(=O)O4)[C@H]12 [Spironolactone]
inhibition at 10 µM [1, 4]: 20% | Quadrant (FIG. 5b) [2]: Q4

C[C@]12CC[C@@H]3c4ccc(O)cc4C[C@@H](CCCCCCCCC[S+]([O-])CCCC(F)(F)C(F)(F)F)[C@H]3[C@@H]1CC[C@@H]2O (some centres unmarked) [Fulvestrant]
inhibition at 10 µM ([1]; Rattus norvegicus, Microglia, 48 h, primary microglia HTS, LPS stimulation, activation = cell size >800 μm2): 15% | Quadrant (FIG. 5b) [2, 6]: Q4

C[C@H]1O[C@@H](O[C@H]2[C@@H](O)C[C@H](O[C@H]3[C@@H](O)C[C@H](O[C@H]4CC[C@@]5(C)[C@H](CC[C@@H]6[C@@H]5C[C@@H](O)[C@]5(C)[C@@H](C7=CC(=O)OC7)CC[C@]65O)C4)O[C@@H]3C)O[C@@H]2C)C[C@H](O)[C@@H]1O [Digoxin]
Quadrant (FIG. 5b) [2]: Q3 and Q4

Cc1cc2nc3c(=O)[nH]c(=O)nc-3n(C[C@H](O)[C@H](O)[C@H](O)CO)c2cc1C [Riboflavin]
Quadrant (FIG. 5b) [2]: Q4

CN1[C@@H]2CC[C@H]1C[C@@H](OC(=O)C(CO)c1ccccc1)C2 (some centres unmarked) [Atropine]
inhibition at 10 µM ([1]; Rattus norvegicus, Microglia): 4% | inhibition at 10 µM ([3]; Rattus norvegicus, Microglia): -21%

CCn1cc(C(=O)O)c(=O)c2cc(F)c(N3CCN(C)CC3)cc21 [Pefloxacin]
inhibition at 10 µM [1, 4]: 21%

C#CC1(O)CC[C@H]2[C@@H]3CCC4=CC(=O)CC[C@@H]4[C@H]3CC[C@@]21CC (some centres unmarked) [Norgestrel, Levonorgestrel]
LPS % inhibition [1, 5]: 14% | Fibrin % inhibition [3, 7]: 13%

COc1ccccc1OCCNCC(O)COc1cccc2[nH]c3ccccc3c12 (centres unmarked) [Carvedilol, Carvedilol Phosphate]
LPS % inhibition ([1]; 10 µM): 15% and 19% | Quadrant (FIG. 5b) [2]: Q4
